In PMC5731860, “Novel allylated monocarbonyl analogs of curcumin induce mitotic arrest and apoptosis by reactive oxygen species-mediated endoplasmic reticulum stress and inhibition of STAT3” (Oncotarget, 2017):
“Also recorded” adds a separate entry of the source.

Key:
[1] = H&E histology of vital organs of xenograft mice; format: in vivo; settings: ip once a day for 12 days
Method: Portions of heart, liver, kidney and tumor tissues from mice were fixed in 4% paraformaldehyde solution for 1 week at room temperature. Specimens were then dehydrated by passing through graded ethanol, cleared in xylene, and embedded in paraffin wax. Tissue blocks were sectioned at 5 μm thickness and used for H&E and immunohistochemical staining. Tumor tissue sections were stained with indicated primary antibodies for overnight followed by secondary antibodies for 2 h. Diaminobenzidine (DAB) was used for detection. The slides were counterstained with hematoxylin for 30 seconds and mounted. For histologic analysis of heart, kidney and liver tissue sections, we performed routine H&E staining and viewed the sections under a light microscope (20× magnification, Nikon, Japan).

[2] = Body weight of xenograft mice; format: in vivo; settings: 0–12 days, ip once a day; CA10 10 and 20 mg/kg, curcumin 50 mg/kg
Text: (§1) All animal experiments complied with the Wenzhou Medical University's Policy on the Care and Use of Laboratory Animals. Protocols for animal studies were approved by the Wenzhou Medical University Animal Policy and Welfare Committee (Approved documents: 2016/201). Athymic BALB/c nu/nu female mice weighing 20–22 g (6 weeks old) were purchased from Vital River Laboratories (Beijing, China). Animals were housed (6 animals/gage) at a constant room temperature with a 12/12-hr light/dark cycle and fed a standard rodent diet and water ad libitum. SGC-7901 cells were injected subcutaneously into the right flank of each mice at 1 × 10^6 cells in 0.1 mL PBS. Once tumors reached a volume of 100–200 mm^3, mice were randomly divided into 4 groups. These groups included mice treated with 10 mg/kg CA10, mice treated with 20 mg/kg CA10, mice treated 50 mg/kg curcumin, and control mice receiving vehicle alone. All treatments were carried out with intraperitoneal injections. The body weight and tumor volumes were monitored and determined by measuring length (l) and width (w) and calculated as tumor volume (V = 0.5 × l × w2) at the indicated time points. At the end of treatment period, mice were sacrificed and the tumors were removed and weighed for histological analyses and proteins measurement studies.

HT-29 = assay: MTT assay, growth inhibition; format: cell-based; settings: Homo sapiens, HT-29, 24 h
Method: (§2) First, we investigated whether allylated MAC alter the viability or have cytotoxic effects on cells in culture. We have performed MTT tetrazolium reduction assay following exposure of cancer cells (gastric cancer, BGC823 and SGC-7901; colon cancer, HT-29, HCT-116 and SW-480) and normal gastric epithelial cells (GES-1) to all 20 allylated MAC at a concentration of 20 μM for 24 h. […] In addition, we also found notable solubility and stability profile of these compounds (Supplementary Figure 1).
(§3) Cells were plated at a density of 8 × 10^3 cells/well in 96-well plates and allowed to attach overnight. Stock solutions of allylated MAC and curcumin were prepared in DMSO and diluted in culture media to obtain appropriate concentration. Cells were treated for 24 h and 48 h, following which, 20 μL of 5 mg/ml MTT reagent was added. Purple formazan product was dissolved by the addition of 100 μL DMSO to each well. Absorbance was then monitored at 490 nm using a plate reader (Molecular Device Spectra MAX190, USA). Percentage of cytotoxicity was determined using the following formula: Growth inhibition (%) = (OD of control−OD of test/OD of control×100%).

SGC-7901 cells = assay: Malondialdehyde (MDA) and total GSH in cancer cells; format: cell-based, human
Method: The treated cells were harvested with RIPA buffer at 4°C. Cell lysates were then centrifuged at 12,000 × g for 10 min at 4°C to collect the supernatant. Protein content was determined by the Bradford protein assay kit. Equal amounts of proteins were used for malondialdehyde (MDA) and total GSH assay (Beyotime Institute of Biotechnology, Nantong, China). MDA and total GSH levels were detected by measuring absorbance respectively at 532 nm and 412 nm using a multimode microplate reader (Molecular Devices, SpectraMax 190, USA

SGC-7901 [3] = assay: MTT assay, growth inhibition / cell viability; format: cell-based; settings: Homo sapiens
Method: as §2, §3

BGC-823 [4] = assay: MTT assay, growth inhibition / cell viability; format: cell-based; settings: Homo sapiens
Method: as §2, §3

SW-480 = assay: MTT assay, growth inhibition; format: cell-based, human; settings: Homo sapiens, SW480, 24 h
Method: as §2, §3

HCT-116 = assay: MTT assay, growth inhibition; format: cell-based, human
Method: as §2, §3

[5] = system: SGC-7901 xenograft tumors; assay: In vivo mouse xenograft model, tumor growth; parameters: species or system mice
Text: as §1

p-STAT3 = assay: Western blot of p-STAT3; format: cell-based, human; settings: SGC-7901, western blot, 1, 3, 6 and 12 h; total STAT3 not changed
Method: (§4) Protein samples were prepared from cells following treatments or tumor tissues. Protein concentration was determined by Bradford protein assay kit (Bio-Rad, Hercules, CA). Samples were separated on precast 8%-12% SDS polyacrylamide gels. After electrophoresis, proteins were transferred to poly vinylidene difluoride (PVDF) membrane. The membranes were blocked with 5% non-fat milk in tris-buffered saline containing 0.1% Tween 20 (TBST) for 90 min at room temperature, then primary antibodies (1:1000) in TBST were added and membranes incubated overnight at 4°C. After washing with TBST, horseradish peroxidase (HRP)-conjugated secondary antibodies (1:3000) were added for 1 hour at room temperature. After additional washing with TBST, enhanced chemiluminescence detection system (ECL, GE Healthcare) was used. Membranes were probed for GAPDH as a loading control. The density of the immunoreactive bands was analyzed using Image J (National Institute of Health, MD).

[6] = system: p-PERK, p-eIF2α, ATF-4 and CHOP; assay: Western blot of ER stress proteins; format: cell-based, human; settings: SGC-7901, 10 μM, 1, 3, 6 and 12 h
Method: as §4

GES-1 = assay: MTT assay, growth inhibition in normal gastric epithelial cells; format: cell-based, human
Method: as §2, §3

SGC-7901 [7] = assay: Clonogenic (colony formation) assay; format: cell-based, human; settings: SGC-7901, 2.5, 5 or 10 μM for 24 h, then 7 days culture
Method: (§5) The BGC-823 and SGC-7901 cells were seeded at 1000 cells/well in 6 well plates and allowed to attach overnight. Cells were then exposed to various concentrations (2.5, 5 and 10 μM) of CA10 for 24 h in presence and absence of NAC (5 mM). Following treatments, media was changed to fresh culture media and cultures were followed for 7 days. The experiment was terminated by washing the colonies with PBS and fixation with […] at room temperature for 10 min. Colonies were then stained with Crystal violet for 10 min and counted.

BGC-823 [8] = assay: Clonogenic (colony formation) assay; format: cell-based, human; settings: BGC-823, 2.5, 5 or 10 μM for 24 h, then 7 days culture
Method: as §5

Compound: C=CCc1cc(C=C2CCC(=Cc3ccc(O)c(CC=C)c3)C2=O)ccc1O [CA10]
- toxicity in vital organs (heart, liver, kidney), H&E [1]: without overt toxicity
- body weight of mice [2]: no change
- inhibition at 20 µM (HT-29): 77.2 ± 4.86%
- level of total GSH (SGC-7901 cells; compared to control): no significant changes; also recorded: marginally decreased
- MDA level (SGC-7901 cells; enhanced at 20 μM): increased
- IC50 (SGC-7901 [3]; SGC-7901, 24 h): 15 ± 1.72 µM
- inhibition at 20 µM (SGC-7901 [3]; SGC-7901, 24 h, 20 μM, 24 h): > 80%
- IC50 (SGC-7901 [3]; SGC-7901, 48 h): 6.91 ± 0.43 µM
- inhibition at 20 µM (BGC-823 [4]; BGC-823, 20 μM, 24 h): 67.5 ± 1.54%
- IC50 (BGC-823 [4]; BGC-823, 24 h): 13 ± 2.48 µM
- IC50 (BGC-823 [4]; BGC-823, 48 h): 7.14 ± 1.69 µM
- inhibition at 20 µM (SW-480): 77.4 ± 7.84%
- % Of growth inhibition HCT-116 (HCT-116; 20 μM, 24 h): 75.37 ± 4.52%
- inhibition at 20 µM (HCT-116; Homo sapiens, HCT-116, 24 h): 70%
- inhibition effect on tumor growth compared to CA10 10 mg/kg or curcumin 50 mg/kg ([5]; 20 mg/kg ip once a day for 12 days): greater inhibition effect
- tumor weight and volume ([5]; ip once a day for 12 days, CA10 10 and 20 mg/kg, curcumin 50 mg/kg): significant reduction
- protein levels of p-STAT3 (p-STAT3): decreased
- expression of ER specific proteins (p-PERK, p-eIF2α, ATF-4, CHOP) [6]: increased expression
- inhibition of the normal epithelial cells (selective cytotoxicity in cancer cell lines), in words (GES-1; 20 μM, 24 h): minimal inhibition
- inhibition at 20 µM (GES-1; Homo sapiens, GES1, 24 h, normal gastric epithelial cells): 23.4 ± 7.48%
- number of colonies (SGC-7901 [7]): reduced number
- number of colonies (BGC-823 [8]): reduced number
